Measurements published in paper PMC3446790 (Cellular signalling, 2010).
“Also recorded” adds a separate entry of the source.

Experiments:
S1P5 [1] = target: T1, S1P5 (Homo sapiens, UniProt Q9H228); assay: Ca2+ mobilization; format: cell-based; details: concentrations up to 10 μM
[2] = tested on: ERK1/2 and AKT in IEC-6 cells; assay: Immunoblot analysis of ERK1/2 and AKT phosphorylation; format: cell-based, rat
P2Y10/Gα16 = P2Y10/Gα16 (Homo sapiens, UniProt O00398+P30679); assay: Antagonism of S1P-induced Ca2+ mobilization in CHO cells expressing P2Y10/Gα16; format: cell-based
S1P2 [3] = target: T2, S1P2 (Homo sapiens, UniProt O95136); assay: Antagonism of S1P-induced Ca2+ mobilization in S1P2-expressing HTC4 cells; format: cell-based
T2 sequence (O95136 whole entry, species assumed): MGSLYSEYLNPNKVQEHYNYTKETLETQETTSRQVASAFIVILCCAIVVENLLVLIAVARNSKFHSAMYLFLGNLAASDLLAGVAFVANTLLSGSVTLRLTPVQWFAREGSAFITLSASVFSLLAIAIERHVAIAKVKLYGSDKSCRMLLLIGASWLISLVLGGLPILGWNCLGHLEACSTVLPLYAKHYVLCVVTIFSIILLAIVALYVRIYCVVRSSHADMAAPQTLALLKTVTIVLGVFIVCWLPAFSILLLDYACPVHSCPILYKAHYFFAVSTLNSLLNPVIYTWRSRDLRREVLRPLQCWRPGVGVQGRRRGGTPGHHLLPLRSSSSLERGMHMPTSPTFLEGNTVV

S1P1 [4] = target: T3, S1P1 (Homo sapiens, UniProt P21453); assay: Ca2+ mobilization; format: cell-based; details: Ca2+ mobilization, concentrations up to 10 μM
S1P4 [5] = target: T4, S1P4 (Homo sapiens, UniProt O95977); assay: Antagonism of S1P-induced Ca2+ mobilization in S1P4-expressing HTC4 cells; format: cell-based
T4 sequence (O95977 1-384): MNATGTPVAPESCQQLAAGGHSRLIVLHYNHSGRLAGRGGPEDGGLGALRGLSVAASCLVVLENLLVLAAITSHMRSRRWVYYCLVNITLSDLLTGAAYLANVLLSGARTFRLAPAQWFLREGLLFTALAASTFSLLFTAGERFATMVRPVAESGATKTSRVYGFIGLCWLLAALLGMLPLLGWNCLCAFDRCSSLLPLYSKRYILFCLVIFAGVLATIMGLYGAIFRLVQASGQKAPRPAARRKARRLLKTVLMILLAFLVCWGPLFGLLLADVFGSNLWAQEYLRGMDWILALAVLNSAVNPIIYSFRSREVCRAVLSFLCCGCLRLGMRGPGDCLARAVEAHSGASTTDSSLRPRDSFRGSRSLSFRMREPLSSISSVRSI

S1P1 [6] = target: T3, S1P1; assay: Antagonism of S1P-induced Ca2+ mobilization in S1P1-expressing HTC4 cells; format: cell-based
S1P2 [7] = target: T2, S1P2; assay: Ca2+ mobilization; format: cell-based; details: concentrations up to 10 μM
sphingosine kinase 1 = details: cited from earlier work
S1P1-eGFP = S1P1-eGFP (Homo sapiens, UniProt P21453); format: cell-based; details: 100 nM, 30 min, HEK293
S1P3 [8] = target: T5, S1P3 (Homo sapiens, UniProt Q99500); assay: Ca2+ mobilization; format: cell-based; details: Ca2+ mobilization, concentrations up to 10 μM
T5 sequence (Q99500 whole entry, species assumed): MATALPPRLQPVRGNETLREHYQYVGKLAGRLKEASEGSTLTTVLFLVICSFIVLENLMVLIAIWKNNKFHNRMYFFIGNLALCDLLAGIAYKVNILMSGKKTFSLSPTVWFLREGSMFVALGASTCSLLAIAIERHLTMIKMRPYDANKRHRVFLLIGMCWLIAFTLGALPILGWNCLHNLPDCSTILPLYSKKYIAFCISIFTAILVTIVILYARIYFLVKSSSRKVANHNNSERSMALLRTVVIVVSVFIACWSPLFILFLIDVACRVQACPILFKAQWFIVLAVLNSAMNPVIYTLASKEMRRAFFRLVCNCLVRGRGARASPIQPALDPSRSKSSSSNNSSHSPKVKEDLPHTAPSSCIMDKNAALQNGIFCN

S1P4 [9] = target: T4, S1P4; assay: Ca2+ mobilization; format: cell-based; details: Ca2+ mobilization, concentrations up to 10 μM
recombinant ATX = recombinant ATX (Homo sapiens, UniProt Q13822); assay: ATX assay; format: biochemical; details: FS-3 substrate
S1P1 [10] = target: T3, S1P1; assay: Receptor desensitization assay in S1P1-expressing HTC4 cells; format: cell-based; details: 300 nM, 2 h preincubation
IEC-6 cells = assay: DNA fragmentation ELISA, camptothecin-induced apoptosis; format: cell-based, rat
LPA1,2,3,4,5 and GPR87 = assay: Ca2+ mobilization in cells transfected with LPA receptors; format: cell-based; details: data not shown
C57BL/6 mice = assay: Whole blood lymphocyte counting in mice; format: in vivo; details: 1 mg/kg intraperitoneal
S1P3 [11] = target: T5, S1P3; assay: Antagonism of S1P-induced Ca2+ mobilization in S1P3-expressing HTC4 cells; format: cell-based
S1P5 [12] = target: T1, S1P5; assay: Antagonism of S1P-induced Ca2+ mobilization in S1P5-expressing HTC4 cells; format: cell-based
[13] = shift of S1P dose response curve

T1 sequence (Q9H228 whole entry, species assumed): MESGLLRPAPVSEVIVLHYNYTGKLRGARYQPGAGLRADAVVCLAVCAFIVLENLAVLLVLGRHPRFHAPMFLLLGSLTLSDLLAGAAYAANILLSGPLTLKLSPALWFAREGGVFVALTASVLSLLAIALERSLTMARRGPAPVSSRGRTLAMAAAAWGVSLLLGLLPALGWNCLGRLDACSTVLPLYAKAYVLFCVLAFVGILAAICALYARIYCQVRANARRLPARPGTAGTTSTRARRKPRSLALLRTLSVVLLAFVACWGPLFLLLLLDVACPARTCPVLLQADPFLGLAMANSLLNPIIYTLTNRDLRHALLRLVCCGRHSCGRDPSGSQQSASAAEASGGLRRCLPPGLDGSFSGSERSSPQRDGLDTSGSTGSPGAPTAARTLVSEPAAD

CCCCCCCCc1ccc(CC[C@](N)(/C=C/P(=O)(O)O)CO)cc1 [(S)-ene, (S)-FTY720-vinylphosphonate]
S1P5 activation (in words) (S1P5 [1]): failed to activate | effect of overnight PTX treatment on ERK1/2 activation ([2]; 100 ng/mL PTX, S1P 300 nM 5 min, (S)- or (R)-ene 1 μM 10 min): no significant effect | time of peak ERK1/2 and AKT phosphorylation ([2]; IEC-6 cells): 5 to 15 min | ERK1/2 and AKT phosphorylation ([2]; IEC-6 cells, 100 nM): elicited ERK1/2 and AKT phosphorylation | inhibition of the S1P response, P2Y10 (P2Y10/Gα16; 300 nM S1P): No inhibition at 30 mM (300 nM S1P) | inhibitory effect on P2Y10 when co-applied with S1P (P2Y10/Gα16; concentrations up to 30 μM): no inhibitory effect | antagonist character at S1P2 (S1P2 [3]; S1P near EC70): partial antagonist | maximal % inhibition of the S1P response, S1P2 (S1P2 [3]; at 30, 30 nM S1P): 40.0% inhibition at 30 mM (30 nM S1P) | S1P1 activation, agonist character (in words) (S1P1 [4]): did not activate | antagonist character at S1P4 (S1P4 [5]; S1P near EC70): full antagonist | Ki (S1P4 [5]; read-out: Ki, S1P4, cotreated with 5 nM S1P, ± SD): 1190 nM | antagonist character at S1P1 (S1P1 [6]; S1P near EC70): full antagonist | pKb, S1P1 (Schild analysis) (S1P1 [6]; average residual error 1.09): 7.10 M | Ki (S1P1 [6]; read-out: Ki, S1P1, cotreated with 3 nM S1P, ± SD): 384 nM | mechanism of antagonism, S1P1 (S1P1 [6]; [13]): competitive inhibition | S1P2 activation (in words) (S1P2 [7]): failed to activate | inhibition of sphingosine kinase 1 (sphingosine kinase 1): inhibitor | S1P1-eGFP receptor internalization (S1P1-eGFP): failed to cause redistribution; also recorded: did not induce; also recorded: failed to cause receptor internalization | S1P3 activation (in words) (S1P3 [8]): inactive | S1P4 activation (in words) (S1P4 [9]): failed to activate | mechanism of ATX inhibition (recombinant ATX): competitive | Ki (recombinant ATX; read-out: Ki, ATX, affinity for free enzyme): 1000 nM | desensitization of the S1P1 response to S1P after preincubation (S1P1 [10]): almost no effect; also recorded: did not induce | effect of PTX treatment on the antiapoptotic action (IEC-6 cells; 100 ng/mL PTX overnight, 300 nM compound): partially inhibited | concentration of maximal protection against DNA fragmentation (IEC-6 cells; 20 μM camptothecin 5 h, inverse bell-shape curve): 300 nM | reduction in DNA fragmentation elicited by camptothecin (IEC-6 cells; 15 min pretreatment, 20 μM camptothecin 5 h): significant and dose-dependent reduction | attenuation of DNA fragmentation at concentrations above 1 μM (IEC-6 cells; above 1 μM): no longer showed an attenuation | Ca2+ mobilization responses in cells transfected with LPA receptors (LPA1,2,3,4,5 and GPR87): unable to detect | decrease in circulating lymphocytes (C57BL/6 mice; 6 h): approximately 20% | circulating lymphocyte counts at 24 h (C57BL/6 mice; 24 h): restored to pretreatment levels; also recorded: no significant decrease | antagonist character at S1P3 (S1P3 [11]; S1P near EC70): full antagonist | pKb, S1P3 (Schild analysis) (S1P3 [11]; average residual error 0.62): 7.61 M | Ki (S1P3 [11]; read-out: Ki, S1P3, cotreated with 10 nM S1P, ± SD): 39 nM | mechanism of antagonism, S1P3 (S1P3 [11]; [13]): competitive inhibition | antagonist character at S1P5 (S1P5 [12]; S1P near EC70): partial antagonist | maximal % inhibition of the S1P response, S1P5 (S1P5 [12]; at 30, 30 nM S1P): 60.0% inhibition at 30 mM (30 nM S1P)
